# Compound: CN(C)C(=N)NC(=N)N [Metformin] + Cc1cc(Nc2cc(N3CCN(C)CC3)nc(Sc3ccc(NC(=O)C4CC4)cc3)n2)n[nH]1 [Tozasertib] (partner 0.1 µM)
# Test: relative viability (nuclei count vs DMSO), 5 days (fraction); higher = more cells survive
# Conditions: first compound 316.23 µM
# Method in brief: (§1)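 Relative viability is defined as nuclei in treated wells over nuclei in vehicle wells. Duplicate plates were run and medians reported. Lung cancer cell lines in 1536-well plates were dosed by pin tool one day after seeding, with one drug or with a fixed anchor-drug dose plus five library-drug doses (not always all listed) in √10 steps, and nuclei were counted after 5 days.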
row,Cell Line,relative viability
1,LC-2-ad,0.469
2,NCI-H520,0.498
3,NCI-H522,0.609
4,NCI-H661,0.362
5,NCI-H1623,0.337
6,NCI-H1648,0.706
7,NCI-H1650,0.442
8,NCI-H2009,0.759
9,NCI-H2023,0.301
10,NCI-H2228,0.333
11,NCI-H2342,0.35
12,SK-LU-1,0.263
13,SK-MES-1,0.662
14,SW 900,0.461
15,SW 1573,0.161
16,UMC-11,0.2

# Same assay, conditions: first compound 1000 µM
row,Cell Line,relative viability
1,201T,0.92
2,A-427,0.245
3,ABC-1,0.189
4,BEN,0.395
5,CAL-12T,0.35
6,COR-L23,0.176
7,COR-L 105,0.321
8,ChaGo-K-1,0.22
9,EKVX,0.391
10,EMC-BAC-2,0.32
11,EPLC-272H,0.238
12,H3255,0.592
13,HARA,0.105
14,HCC-15,0.521
15,HCC-44,0.757
16,HCC-78,0.629
17,HCC-366,0.163
18,HCC-827,0.439

row,Cell Line,relative viability
1,HOP-62,0.289
2,LC-2-ad,0.506
3,NCI-H520,0.469
4,NCI-H522,0.764
5,NCI-H661,0.366
6,NCI-H1623,0.452
7,NCI-H1648,0.742
8,NCI-H1650,0.364
9,NCI-H2009,0.783
10,NCI-H2023,0.324
11,NCI-H2228,0.409
12,NCI-H2342,0.276
13,SK-LU-1,0.307
14,SK-MES-1,0.771
15,SW 900,0.657
16,SW 1573,0.162
17,UMC-11,0.209

# Compound: CN(C)C(=N)NC(=N)N [Metformin] + NC(=O)Nc1cc(-c2cccc(F)c2)sc1C(=O)N[C@H]1CCCNC1 [AZD7762] (partner 0.2 µM)
# Test: as above
# Conditions: first compound 10 µM
# Method in brief: as §1
row,Cell Line,relative viability
1,A-427,0.634
2,ABC-1,1.24
3,BEN,1.08
4,CAL-12T,0.659
5,ChaGo-K-1,0.788
6,EMC-BAC-2,1.14
7,EPLC-272H,0.23
8,H3255,0.898
9,HARA,0.279
10,HCC-366,0.233
11,HCC-827,0.245
12,HOP-62,0.248
13,NCI-H522,1.02
14,NCI-H1703,0.138
15,NCI-H1792,0.598
16,SW 900,0.666

# Same assay, conditions: first compound 31.62 µM
row,Cell Line,relative viability
1,201T,0.5
2,A-427,0.717
3,ABC-1,1.03
4,BEN,1.12
5,CAL-12T,0.718
6,ChaGo-K-1,0.956
7,EKVX,0.69
8,EMC-BAC-2,1.26
9,EPLC-272H,0.351
10,H3255,0.853
11,HARA,0.47
12,HCC-15,1.07
13,HCC-44,1
14,HCC-78,0.99
15,HCC-366,0.299
16,HCC-827,0.174
17,HOP-62,0.41
18,LC-2-ad,0.885
19,NCI-H522,0.986
20,NCI-H1648,0.575
21,NCI-H1703,0.139
22,NCI-H1792,0.667
23,NCI-H2342,0.441
24,SW 900,0.624

# Same assay, conditions: first compound 100 µM
row,Cell Line,relative viability
1,201T,0.581
2,A-427,0.771
3,ABC-1,0.986
4,BEN,0.967
5,CAL-12T,0.638
6,ChaGo-K-1,0.938
7,EKVX,0.795
8,EMC-BAC-2,1.17
9,EPLC-272H,0.345
10,H3255,0.814
11,HARA,0.362
12,HCC-15,1.11
13,HCC-44,1.01
14,HCC-78,0.946
15,HCC-366,0.362
16,HCC-827,0.257
17,HOP-62,0.416
18,LC-2-ad,0.906
19,NCI-H522,0.97
20,NCI-H1648,0.681
21,NCI-H1703,0.135
22,NCI-H1792,0.539
23,NCI-H2342,0.366

# Same assay, conditions: first compound 316.23 µM
row,Cell Line,relative viability
1,201T,0.476
2,A-427,0.623
3,ABC-1,1.1
4,BEN,0.957
5,CAL-12T,0.646
6,ChaGo-K-1,0.849
7,EKVX,0.609
8,EMC-BAC-2,1.22
9,EPLC-272H,0.334
10,H3255,0.845
11,HARA,0.293
12,HCC-15,1
13,HCC-44,0.994
14,HCC-78,0.846
15,HCC-366,0.265
16,HCC-827,0.217
17,HOP-62,0.325
18,LC-2-ad,0.811
19,NCI-H522,0.985
20,NCI-H1648,0.574
21,NCI-H1703,0.112
22,NCI-H1792,0.56
23,NCI-H2342,0.46
24,SW 900,0.537

# Same assay, conditions: first compound 1000 µM
row,Cell Line,relative viability
1,201T,0.609
2,A-427,0.633
3,ABC-1,0.909
4,BEN,0.72
5,CAL-12T,0.659
6,ChaGo-K-1,0.862
7,EKVX,0.674
8,EMC-BAC-2,1
9,EPLC-272H,0.259
10,H3255,0.738
11,HARA,0.287
12,HCC-15,1.27
13,HCC-44,1.02
14,HCC-78,0.917
15,HCC-366,0.371
16,HCC-827,0.36
17,HOP-62,0.492
18,LC-2-ad,0.87
19,NCI-H522,1.07
20,NCI-H1648,0.663
21,NCI-H1703,0.132
22,NCI-H1792,0.796
23,NCI-H2342,0.386
24,SW 900,0.761

# Reference: the supplement of paper PMC10307832
